Source: patent US6989396B2, “Tropane alkaloid multidrug resistance inhibitors from Erythroxylum pervillei and use of the same” (The Board of Trustees of the University of Illinois, priority 2001, dated 2006)
pIC50, pKi: −log10 of the molar value. Where “and” joins values, the source holds several entries; their conditions need not be identical. Equal entries are not always repeated. Where two headings read alike, the source gives them in different places. Marks after values point to notes of the source that are not given here.

Assays:
KB-V1, drug resistant KB = assay: In vitro cytotoxicity, human tumor panel: KB-V1 with or without vinblastine; format: cell-based
Protocol: Cytotoxicity assay. Compounds 1–9 were evaluated for cytotoxic activity against a panel of human cancer cell lines, including KB-V1 in the presence and absence of VLB, according to an established protocol (68).

[1] = target: T1, Pgp (KB-V1 cell membrane vesicles) (Homo sapiens, UniProt P08183); assay: [3H]Vinblastine accumulation with KB-V1 cell membrane vesicles; format: binding
T1 construct: Cell membrane vesicles were prepared from KB-V1 cells following literature procedures; endogenous in cells; host or cells: KB-V1 cells (vinblastine-selected multidrug-resistant KB line); plasma membrane vesicles
Protocol: [^3H]Vinblastine accumulation with KB-V1 vesicles. Cell membrane vesicles were prepared from KB-V1 cells following literature procedures (31, 32) with some modifications. Medium was removed from KB-V1 cells in log growth phase (about 80% confluence) and the cells were rinsed with ice-cold PBS followed by ice-cold PBS containing 2 mM EDTA. Aprotinin (1 mg/ml) was then added, and, after a 10 minutes incubation at room temperature, the cells were harvested by gentle aspiration with a serological pipette and collected by centrifugation (100×g for 5 minutes). The cells were suspended in 0.25 M sucrose buffer (0.01 M Tris-HCl, pH 7.5, containing 0.25 M sucrose, 0.2 mM CaCl2, 1 mM EDTA) and homogenized with a Polytron at 2,500 rpm for 30 seconds. […] The homogenate then was diluted with four volumes of 0.025 M sucrose solution (0.01 M Tris-HCl, pH 7.5, containing 0.025 M sucrose) and centrifuged (1,000×g for 10 minutes). […] The interface (about 5 ml) was collected and diluted with four volumes of 0.25 M sucrose, 0.01 M Tris-HCl, pH 7.5, and centrifuged at 100,000×g for 1 hour. The resulting vesicle pellet was suspended in PBS containing 1 mM phenylmethylsulfonyl fluoride, using a 25-gauge needle, and stored at −80° C. Protein content was determined using a bicinchoninic acid protein assay kit with BSA as a standard (33).
Vinblastine accumulation with membrane vesicles assays were performed in 96-well plates as described previously (23, 24). […] Various concentrations of test samples, dissolved in 5 μl of DMSO, were then added (final volume, 100 μl), and incubations were conducted at ambient temperature for 20 minutes. For kinetic studies, various concentrations of [^3H]vinblastine were used. Reactions were terminated by aspirating the contents of each well onto a glass filter filter (printed type A filtermats, Wallac) using a 96-well harvester (Harvester 96, Tomtec). […] Nonspecific binding was determined by performing similar incubations with reaction mixtures containing a 1,000-fold excess of unlabeled vinblastine. Nonspecific binding was subtracted from all total-binding data to yield specific binding.

KB-8-5 cells = assay: Reversal of MDR, cell survival assay: KB-8-5 with or without colchicine; format: cell-based, human; conditions: for Ratio of IC50 values KB-3/[KB-8-5 (+)] / Ratio of IC50 values [KB-8-5 (−)]/[KB-8-5 (+)]: colchicine 10 ng/ml
Protocol: Cytotoxic potential. The cytotoxic potential of test substances with KB-3, KB-V1 and KB-8-5 cells was determined as described previously (24). Briefly, various concentrations of test compounds (dissolved in 10 μl of 10% DMSO) were transferred to 96-well plates, and 190 μl aliquots of cell suspensions (5×10^4 cells/ml) were added to each well. The plates then were incubated for 72 hours at 37° C. (100% humidity with a 5% CO2 atmosphere in air), and 100 μl of cold 20% aqueous trichloroacetic acid were added to the growth medium in each well to fix the cells. The cultures were incubated at 4° C. for 30 minutes, washed, air-dried, stained with sulforhodamine B solution, and washed with 1% acetic acid. […] In each case, a zero-day control was performed by adding an equivalent number of cells to several wells and incubating at 37° C. for 30 minutes, and processing as described above. Optical density values obtained with the zero-day control were subtracted, and cell survival, relative to control (solvent-treated) cultures, was calculated. The cytotoxic potential of the compounds with CEM and CEM/VLB100 cells was determined as described by Beck et al. (30). Cells were grown in 24-well plates at a density of 5–6×10^5 cells/ml. At 48 hours, the cell number was determined using a Coulter Counter, with a channelizer to distinguish cells from debris.

[2] = test system: SKVLB (ovarian adenocarcinoma, multidrug resistance); assay: Multidrug resistance inhibition in SKVLB (pGp +ve); format: cell-based, human
[3] = test system: KB, oral epidermoid carcinoma; assay: In vitro cytotoxicity, human tumor panel: KB; format: cell-based; conditions: Homo sapiens, read-out: ED50 KB
Summary of the method: (§1)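 Growth-inhibitory effect read against several human cancer lines. Resistant KB-V1 cells received test compound alone or combined with VLB.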

[4] = test system: SKOV3 (ovarian adenocarcinoma); assay: Cytotoxicity in ovarian adenocarcinoma SKOV3 (pGp -ve); format: cell-based; conditions: Homo sapiens, SK-OV-3, read-out: IC50 SKOV3 (pGp − ve)
Summary of the method: as §1

BC1, breast cancer = assay: In vitro cytotoxicity, human tumor panel: BC1; format: cell-based; conditions: Homo sapiens, read-out: ED50 BCI
Summary of the method: as §1

CEM/VLB100 cells = assay: MDR reversal in drug-resistant human leukemia CEM/VLB100 cells; format: cell-based; conditions: for pIC50: Homo sapiens
[5] = test system: SW626, human ovarian adenocarcinoma; assay: In vitro cytotoxicity, human tumor panel: SW626; format: cell-based; conditions: SW626, read-out: ED50 SW626
Summary of the method: as §1

[6] = pervilleine A 5 μM, verapamil 10 μM

T1 sequence (P08183 whole entry): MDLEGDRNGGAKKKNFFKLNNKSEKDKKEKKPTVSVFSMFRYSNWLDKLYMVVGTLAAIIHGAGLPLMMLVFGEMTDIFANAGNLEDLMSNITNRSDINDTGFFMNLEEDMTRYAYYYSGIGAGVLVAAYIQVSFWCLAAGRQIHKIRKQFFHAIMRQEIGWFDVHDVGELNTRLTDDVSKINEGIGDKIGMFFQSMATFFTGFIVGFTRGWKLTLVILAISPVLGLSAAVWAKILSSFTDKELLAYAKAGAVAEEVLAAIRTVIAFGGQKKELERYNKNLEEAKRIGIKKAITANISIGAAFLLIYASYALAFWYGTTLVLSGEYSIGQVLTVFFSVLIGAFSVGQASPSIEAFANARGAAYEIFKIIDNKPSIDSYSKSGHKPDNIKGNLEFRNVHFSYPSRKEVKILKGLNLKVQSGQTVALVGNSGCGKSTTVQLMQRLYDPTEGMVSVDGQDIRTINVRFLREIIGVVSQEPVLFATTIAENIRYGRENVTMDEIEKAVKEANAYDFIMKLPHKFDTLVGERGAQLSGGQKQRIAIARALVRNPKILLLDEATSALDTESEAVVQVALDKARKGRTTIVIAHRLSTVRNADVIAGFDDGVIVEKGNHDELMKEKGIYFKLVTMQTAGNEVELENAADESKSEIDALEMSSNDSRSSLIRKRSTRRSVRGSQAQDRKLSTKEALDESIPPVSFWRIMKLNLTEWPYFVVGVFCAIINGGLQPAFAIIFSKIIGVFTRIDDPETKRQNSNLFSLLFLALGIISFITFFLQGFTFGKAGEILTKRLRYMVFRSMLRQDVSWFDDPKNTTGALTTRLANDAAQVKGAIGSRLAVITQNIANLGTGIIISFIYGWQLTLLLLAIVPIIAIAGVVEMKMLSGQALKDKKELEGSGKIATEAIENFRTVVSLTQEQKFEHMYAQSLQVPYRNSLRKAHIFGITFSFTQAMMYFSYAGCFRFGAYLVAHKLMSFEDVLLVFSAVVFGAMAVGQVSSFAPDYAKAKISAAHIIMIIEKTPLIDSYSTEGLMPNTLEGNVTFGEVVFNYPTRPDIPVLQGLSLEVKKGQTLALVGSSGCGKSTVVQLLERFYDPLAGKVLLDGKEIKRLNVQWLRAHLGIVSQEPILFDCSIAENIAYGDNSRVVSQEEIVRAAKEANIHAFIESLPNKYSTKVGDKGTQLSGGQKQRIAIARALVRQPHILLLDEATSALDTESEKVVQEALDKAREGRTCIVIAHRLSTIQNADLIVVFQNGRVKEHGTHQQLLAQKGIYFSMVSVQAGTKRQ

COc1cc(C=CC(=O)O[C@H]2[C@@H](O)[C@@H]3C[C@H](OC(=O)c4cc(OC)c(OC)c(OC)c4)C[C@H]2N3C)cc(OC)c1OC [Compound 3, 3α-(3,4,5-trimethoxybenzoyloxy)-6β-(3,4,5-trimethoxycinnamoyloxy)-7β-hydroxytropane]
IC50 (KB-V1, drug resistant KB; Homo sapiens, KB-V1, drug-resistant KB assessed in the absence of vinblastine, read-out: ED50 KB-V1−): > 20 µg/mL
ED50 KB-V1+ (KB-V1, drug resistant KB; drug resistant KB assessed in presence of vinblastine (1 μg/mL)): 0.3 µg/mL
fold reduction of [3H]vinblastine accumulation ([1]; 0–100 μM, 0.16 μM [3H]vinblastine): about 65 fold
pIC50 ([1]; 0.16 μM [3H]vinblastine, 0.5 mM ATP, 20 minutes, ambient temperature): 5.42
pKi ([1]; double-reciprocal plots, 0.015–0.16 μM [3H]vinblastine, read-out: Ki, competitive with respect to vinblastine binding): ~5.14 and 5.14
mode of inhibition of vinblastine accumulation ([1]; kinetic analysis, double-reciprocal plots): competitive inhibition
pIC50 (KB-8-5 cells; Homo sapiens): 4.85
Ratio of IC50 values KB-3/[KB-8-5 (+)] (KB-8-5 cells; listed as Pervilleine A): 40.3^d
Ratio of IC50 values [KB-8-5 (−)]/[KB-8-5 (+)] (KB-8-5 cells; listed as Pervilleine A): 23.3^d
Ratio of IC50 values KB-3/[KB-8-5 (+)] (KB-8-5 cells; listed as pervilleine A): 40.3
Ratio of IC50 values [KB-8-5 (−)]/[KB-8-5 (+)] (KB-8-5 cells; listed as pervilleine A): 23.3
pIC50 ([2]; Homo sapiens, read-out: IC50 BSKVLB (pGp + ve)): < 5.00
pIC50 ([2]; read-out: IC50 SKVLB (pGp + ve), addition of adriamycin, Addition of 1 μm adriamycin): 6.19
IC50 [3]: > 20 µg/mL
pIC50 [4]: < 5.00
IC50 (BC1, breast cancer): > 20 µg/mL
pIC50 (CEM/VLB100 cells; CEM/VLB100, 48 h, read-out: IC50 Modulator only): < 4.82
pIC50 (CEM/VLB100 cells; CEM/VLB100, read-out: IC50 (Modulator + Daunorubicin)): 7.19
pIC50 (CEM/VLB100 cells; CEM/VLB100, read-out: IC50 (Modulator + Vinblastine)): 7.70
Ratio of IC50 values Daunorubicin/(Modulator + Daunorubicin) (CEM/VLB100 cells; [6]): 15^c
Ratio of IC50 values Modulator/(Modulator + Daunorubicin) (CEM/VLB100 cells; [6]): >231^c
Ratio of IC50 values Modulator/(Modulator + Vinblastine) (CEM/VLB100 cells; [6]): >750^c
Ratio of IC50 values Vinblastine/(Modulator + Vinblastine) (CEM/VLB100 cells; [6]): 250^c
IC50 [5]: > 20 µg/mL
